Results: patent US20220279787A1, “a-Substituted Phenyl Structure-Containing Compound, Preparation Method Thereof, and Disinfectant” (Henan Ruibo Pharmaceutical Technology Co. Ltd., priority 2019, published 2022)

How the values were obtained:
Format in all cases: cell-based
[1] = test system: Bacillus subtilis var. niger spores ATCC 9372; assay: Suspension quantitative experiment, Bacillus subtilis var. niger spores; conditions: for Killing logarithmic value: suspension method
Description: (4) Operation Method of Suspension Quantitative Experiment:
a. The Bacillus subtilis var. niger spores ATCC 9372 freeze-dried strain tube was provided, opened up under an aseptic condition, and an appropriate amount of nutrient broth was added thereto with a capillary pipette. The strain was melted and dispersed by gently blowing and sucking several times. A test tube containing 5.0 mL-10.0 mL of nutrient broth medium was provided, and a small amount of bacterial suspension was dropped thereto, and incubated at 37° C. for 18 h-24 h. The bacterial suspension of the first generation culture was taken by using an inoculation loop.
b. The monoclonal strains of the first generation culture were picked out and placed in 3 mL of NMB. The strains were shaken in a constant temperature culture shaker for 3 h with a rotation speed of 220 rpm, obtaining a bacterial suspension with a concentration of (1-5)×10^8 CFU/mL.
c. 0.5 mL of bacterial suspension was added to a sterile test tube, and 0.5 mL of an organic interfering substance (0.03 mol/L PBS buffer) was then added thereto. They were mixed to be uniform, and placed in a water bath at 20° C.±1° C. for 5 min. 4.0 mL of the sample to be tested prepared in step (1) was drawn with a sterile pipette and injected into the mixed solution, mixed quickly, and the time was recorded immediately.
d. After the experimental bacteria interacted with the sample to be tested for the predetermined time. 0.5 mL of the mixture of the experimental bacteria and a disinfectant was drawn respectively and added to 4.5 mL of a neutralizer, and mixed to be uniform.
e. After 10 min of neutralization, 1.0 mL of the sample solution was drawn, and the number of viable bacteria was determined by viable count method. After the viable count method, sample solution of each pipette was inoculated onto 2 plates. When the number of colonies growing on the plate was large, 10-fold dilution was performed, and then the viable bacteria was cultured and counted.
h. At the same time, PBS buffer was used to replace the sample to be tested, and a parallel test was performed as a positive control.
f. All test samples were placed in a 37° C. incubator overnight, and the results were observed.
g. The experiment was repeated for 3 times, the concentration of viable bacteria (CFU/mL) of each group was calculated, and converted to logarithmic value (N), and then the killing logarithmic value was calculated according to the following equation:
Killing logarithmic value (KL)=the logarithmic value of the average viable bacteria concentration of the control group (No)−the logarithmic value of the viable bacteria concentration of the test group (Nx).
When calculating the killing logarithmic value, two digits after the decimal point was kept, and digital round-off was allowed.

[2] = test system: Escherichia coli ATCC 25922; assay: Neutralizer identification experiment, Escherichia coli
Description: (§1) (4) Experimental Method for Selecting a Neutralizer:
(§2) Escherichia coli ATCC 25922 and Staphylococcus aureus ATCC 29213 were used as the experimental strains, and the concentration of the drug to be tested was set to be 2.5 g/L. The experiment was carried out according to the suspension quantitative sterilization procedure, with three repetitions, and six parallel groups:
(§3) Group I: 100 μL of a bacterial suspension (Escherichia coli ATCC 25922 with a concentration of 1×10^8 CFU/mL and Staphylococcus aureus ATCC 29213 with a concentration of 1×10^8 CFU/mL) interacted with 400 μL of the drug to be tested for 5 min; 50 μL of the mixed solution and 450 μL of PBS buffer were mixed to be uniform and diluted; the viable bacteria therein was counted;
(§4) Group II: 100 μL a bacterial suspension (Escherichia coli ATCC 25922 with a concentration of 1×10^8 CFU/mL and Staphylococcus aureus ATCC 29213 with a concentration of 1×10^8 CFU/mL) interacted with 400 μL of the drug to be tested for 5 min; 50 μL of the mixed solution and 450 μL of a neutralizer were mixed to be uniform and reacted for 10 min, and diluted; the viable bacteria therein was counted;
(§5) Group III: 10 μL of a bacterial suspension, 40 μL of sterile water, and 450 μL of a neutralizer were reacted for 10 min; the reaction solution was diluted, and the viable bacteria therein was counted;
(§6) Group V: 100 μL of bacterial suspension and 400 μL of a neutralizer were reacted for 5 min; 50 μL of the mixture and 450 μL of PBS buffer were mixed to be uniform, and then diluted; the viable bacteria therein was counted;
(§7) Group VI: a mixture of culture medium and PBS buffer was used as negative control.
(§8) Determination of the Results:
(§9) Group I had no bacteria growth or a small amount of bacteria growth;
(§10) Group II had bacteria growth, and the number of bacteria was not less than 100 CFU/mL;
(§11) the error rate of the number of bacteria between the Group III, Group IV, and Group V was less than or equal to 15%;
(§12) Group VI had no bacteria growth.

[3] = test system: Staphylococcus aureus ATCC 29213; assay: Neutralizer identification experiment, Staphylococcus aureus
Description: as §1, §2, §3, §4, §5, §6, §7, §8, §9, §10, §11, §12

[4] = test system: Bacillus subtilis var. niger spores ATCC 9372; assay: Carrier immersion quantitative sterilization test; conditions: carrier method
Description: (5) Operation Method of the Carrier Immersion Quantitative Sterilization Test:
a. A sterile small plate was provided, and marked with the concentration of the sample to be tested injected. The sample to be tested of the corresponding concentration was drawn and injected into the plate in an amount of 5.0 mL per piece.
b. 3 pieces of Bacillus subtilis var. niger spores were placed on the plate by using a sterile tweezer, and soaked in the sample to be tested.
c. After the bacteria and drugs interacted for each predetermined time, the bacteria pieces were taken out by using a sterile tweezer and transferred into a test tube containing 5.0 mL of a neutralizer. The test tube was vibrated 80 times in the palm of the hand to wash the bacteria on the bacteria piece into the neutralization solution, left to stand for another 10 min to fully neutralize. Finally after further mixing, 1.0 mL of the mixture was drawn and directly inoculated onto the plate, 2 plates for each pipette, and the number of viable bacteria was determined.
d. Another plate was provided, and 10.0 mL of PBS buffer was injected instead of the sample to be tested. 2 pieces of bacteria were added thereto as the positive control group, and the subsequent test steps and viable bacteria culture and counting were the same as the above test groups.
e. All test samples were cultured overnight in a 37° C. incubator, and the results were observed.
f. The experiment was repeated for 3 times (including the control group), and the number of viable bacteria (CFU/piece) in each group was calculated and converted to a logarithmic value (N).

[5] = 2.5 g/L drug reacted with neutralizer 10 min, then bacterial suspension added
[6] = 2.5 g/L drug, 5 min, then mixed with PBS buffer
[7] = 2.5 g/L drug, 5 min, then neutralizer 10 min

## CNC(=O)C(c1ccc(O)c(O)c1)c1ccco1 (stereo not shown) [Example 5, 2-(3,4-dihydroxyphenyl)-2-(2-furyl)-N-methylacetamide]
[1]; Bacillus subtilis, ATCC9372, 0.5 h, read-out: Activity (killing logarithmic value)
  log reduction at 15000 µg/mL: 5.6
[2]; [5]
  Viable bacteria count, Group IV: 6 × 10^6 CFU/mL
[2]; [6]
  Viable bacteria count, Group I: 2 × 10^4 CFU/mL
[2]; [7]
  Viable bacteria count, Group II: 400 CFU/mL
[3]; [5]
  Viable bacteria count, Group IV: 7 × 10^5 CFU/mL
[3]; [6]
  Viable bacteria count, Group I: 3 × 10^4 CFU/mL
[3]; [7]
  Viable bacteria count, Group II: 5 × 10^4 CFU/mL

## O=Cc1ccccc1C=O [o-Phthalaldehyde solution, o-Phthalaldehyde]
[1]; 5 g/L, 10 min
  Killing logarithmic value: 5.23
[1]; 5 g/L, 20 min
  Killing logarithmic value: 5.31
[1]; 5 g/L, 30 min
  Killing logarithmic value: 5.39
[1]; 10 g/L, 10 min
  Killing logarithmic value: 5.41
[1]; 10 g/L, 20 min
  Killing logarithmic value: 5.49
[1]; 10 g/L, 30 min
  Killing logarithmic value: 5.57
[1]; 15 g/L, 10 min
  Killing logarithmic value: 5.53
[1]; 15 g/L, 20 min
  Killing logarithmic value: 5.68
[1]; 15 g/L, 30 min
  Killing logarithmic value: 5.71
[4]; 5 g/L, 1 h
  Killing logarithmic value: 1.95
[4]; 5 g/L, 2 h
  Killing logarithmic value: 3.23
[4]; 5 g/L, 3 h
  Killing logarithmic value: 5.21
[4]; 5 g/L, 4 h
  Killing logarithmic value: 5.53
[4]; 10 g/L, 1 h
  Killing logarithmic value: 2.19
[4]; 10 g/L, 2 h
  Killing logarithmic value: 5.12
[4]; 10 g/L, 3 h
  Killing logarithmic value: 5.26
[4]; 10 g/L, 4 h
  Killing logarithmic value: 5.53
[4]; 15 g/L, 1 h
  Killing logarithmic value: 3.23
[4]; 15 g/L, 2 h
  Killing logarithmic value: 5.21
[4]; 15 g/L, 3 h
  Killing logarithmic value: 5.36
[4]; 15 g/L, 4 h
  Killing logarithmic value: 5.53
